Experimental data taken from article PMC9226124, “Macrocycle-stabilization of its interaction with 14-3-3 increases plasma membrane localization and activity of CFTR” (Nature Communications, 2022).
Values joined by “and” are separate entries in the source; they are usually repeats but may differ in a detail not shown here. Equal values may be shown once.

Assays:
[1] = molecular target: T1, (Homo sapiens, UniProt P13569+P31946); assay: FP assay, 14-3-3β titration at constant compound concentration (apparent KD); assay type: binding; conditions: FC 100 uM
T1 construct: His6 (cleaved yes); made in house; peptide synthetic
T1 sequence (P13569 747-774 limits assumed, one chain of several): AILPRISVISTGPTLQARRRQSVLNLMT

[2] = molecular target: T2, F508del-CFTR in primary CFBE cells (Homo sapiens, UniProt P13569, DEL508-508); assay: Ussing chamber assay (short-circuit current); assay type: cell-based; design: short-circuit current after stimulation by forskolin and genistein: unit not given here; conditions: 18 h
T2 construct: endogenous in cells; host or cells: primary CFBE cells, air-liquid interface culture
T2 sequence (P13569 with tags, fused parts or gaps DEL508-508): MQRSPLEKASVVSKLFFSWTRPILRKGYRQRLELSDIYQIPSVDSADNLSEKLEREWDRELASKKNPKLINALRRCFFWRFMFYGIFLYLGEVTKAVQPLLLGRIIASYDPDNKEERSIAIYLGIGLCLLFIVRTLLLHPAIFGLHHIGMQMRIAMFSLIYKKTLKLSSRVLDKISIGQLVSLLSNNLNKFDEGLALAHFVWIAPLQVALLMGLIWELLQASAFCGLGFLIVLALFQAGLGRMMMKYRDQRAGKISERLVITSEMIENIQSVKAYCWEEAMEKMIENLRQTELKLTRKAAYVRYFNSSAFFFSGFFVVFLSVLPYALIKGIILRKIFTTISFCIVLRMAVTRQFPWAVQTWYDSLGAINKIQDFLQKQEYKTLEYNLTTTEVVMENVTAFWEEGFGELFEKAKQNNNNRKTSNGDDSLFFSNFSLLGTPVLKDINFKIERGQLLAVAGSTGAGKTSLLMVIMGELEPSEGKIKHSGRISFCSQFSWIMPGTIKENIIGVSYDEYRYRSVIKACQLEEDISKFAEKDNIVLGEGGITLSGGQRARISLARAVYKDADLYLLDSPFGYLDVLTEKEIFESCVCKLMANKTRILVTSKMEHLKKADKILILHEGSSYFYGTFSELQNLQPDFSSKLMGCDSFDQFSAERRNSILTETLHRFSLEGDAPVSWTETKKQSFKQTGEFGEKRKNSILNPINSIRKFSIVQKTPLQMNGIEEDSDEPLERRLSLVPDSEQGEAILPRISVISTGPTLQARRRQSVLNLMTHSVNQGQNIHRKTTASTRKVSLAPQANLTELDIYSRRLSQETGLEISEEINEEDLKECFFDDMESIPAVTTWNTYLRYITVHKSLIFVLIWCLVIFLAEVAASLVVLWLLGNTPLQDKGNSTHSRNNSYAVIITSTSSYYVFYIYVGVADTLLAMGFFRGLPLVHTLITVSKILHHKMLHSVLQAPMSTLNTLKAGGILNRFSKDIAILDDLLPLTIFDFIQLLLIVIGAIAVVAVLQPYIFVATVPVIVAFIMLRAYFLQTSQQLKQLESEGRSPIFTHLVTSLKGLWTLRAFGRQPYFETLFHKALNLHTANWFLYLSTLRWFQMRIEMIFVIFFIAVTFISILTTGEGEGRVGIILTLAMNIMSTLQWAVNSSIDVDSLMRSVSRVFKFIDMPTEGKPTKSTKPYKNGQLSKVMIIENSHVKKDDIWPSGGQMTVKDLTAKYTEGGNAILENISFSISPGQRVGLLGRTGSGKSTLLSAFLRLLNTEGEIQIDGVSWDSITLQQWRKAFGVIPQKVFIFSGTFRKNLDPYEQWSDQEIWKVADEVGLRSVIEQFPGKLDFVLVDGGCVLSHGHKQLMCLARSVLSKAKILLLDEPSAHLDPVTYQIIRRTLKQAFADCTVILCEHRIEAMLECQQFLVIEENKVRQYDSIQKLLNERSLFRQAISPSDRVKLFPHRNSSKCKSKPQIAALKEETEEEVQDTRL
Method: Twelve (12) validated hit compounds from the initial screening and focused validation library were tested for their effect on F508del-CFTR trafficking. Baby hamster kidney (BHK) cells expressing 3HA-tagged F508del-CFTR were treated for 24 h with 10 μM compound. After fixation of the cells, a combination of mouse monoclonal anti-HA antibody and anti-mouse IgG conjugated with FITC was used to detect F508del-CFTR that had trafficked to the plasma membrane as described previously. […] Additionally, a fluorescence imaging plate reader (FLIPR) Membrane Potential (FMP) assay was performed. This assay measures real-time membrane potential changes associated with ion channel activation and ion transporter proteins. F508del-CFTR expressing BHK cells were incubated for 24 h with 20 μM compound before treatment with the potentiator genistein, FMP dye, and activator forskolin. The fluorescence intensity is thus a measure for the function of the CFTR protein in the plasma membrane of these cells. The F508del-CFTR corrector VX-809 (lumacaftor) and the triple combination Trikafta® were used as positive controls in this assay. […] Another cellular assay was performed with the Ussing Chamber, which detects and quantifies transport of ions across epithelial tissue. F508del-CFTR expressing cystic fibrosis epithelial (CFBE) cells were treated for 18 h with 20 μM CY007424. After forskolin and genistein stimulation, the short-circuit current of the cells was measured. […]

[3] = molecular target: T3, 14-3-3β/Foxo3 peptide (Homo sapiens, UniProt P31946); assay: FP assay of 14-3-3 partner protein peptide, Foxo3; assay type: binding; conditions: CY007424 100 μM
T3 construct: His6 (cleaved yes); made in house
T3 sequence (P31946 1-246): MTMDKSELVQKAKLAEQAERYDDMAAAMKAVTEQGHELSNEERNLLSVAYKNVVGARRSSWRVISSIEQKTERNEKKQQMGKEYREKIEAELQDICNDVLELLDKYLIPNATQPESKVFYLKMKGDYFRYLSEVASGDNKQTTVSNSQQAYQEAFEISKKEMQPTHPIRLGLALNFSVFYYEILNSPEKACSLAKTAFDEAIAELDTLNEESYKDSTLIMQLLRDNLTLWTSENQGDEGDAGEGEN
Method: The FITC-labeled peptides were dissolved in FP buffer (10 mM HEPES pH 7.4, 150 mM NaCl, 0.1% Tween20, 1 mg/mL BSA) to a final concentration of 100 nM or 10 nM. For the dose-response assays, a 14-3-3β concentration of 10 μM was used while titrating the compounds in a two-times dilution series and, for the other assays, a dilution series of 14-3-3β was made with constant concentration of compound. The dilution series were made in 384 Corning Black Round Bottom well plates and their polarization was measured with a Tecan Infinite F500 plate reader (ex. = 485 nm, em. = 535 nm). The method of fitting of the curves was: “log(agonist) vs. response – Variable slope (four parameters)” from GraphPad Prism. The equation is Y = Bottom + (Top-Bottom)/(1 + 10^((LogEC50-X)*HillSlope)).
Supplementary Figure 2. Stabilization of the interaction between 14-3-3β and a collection of different 14-3-3 partner protein peptides by CY00742 4. […] Background polarization was subtracted from all values, n=3 technical replicates. Source data are provided as a Source Data file.
(1 picture or pasted object on this page, not shown here)

conductance (short-circuit current) in words ([2]; 20 μM, forskolin and genistein stimulation)	FP signal ([3]; 14-3-3β 3.8147e-9 M)	FP signal ([3]; 14-3-3β 3.05176e-8 M)	FP signal ([3]; 14-3-3β 6.10352e-8 M)	FP signal ([3]; 14-3-3β 1.2207e-7 M)	FP signal ([3]; 14-3-3β 2.44141e-7 M)	FP signal ([3]; 14-3-3β 4.88281e-7 M)	FP signal ([3]; 14-3-3β 9.76563e-7 M)	FP signal ([3]; 14-3-3β 1.95313e-6 M)	FP signal ([3]; 14-3-3β 3.90625e-6 M)	FP signal ([3]; 14-3-3β 7.8125e-6 M)	FP signal ([3]; 14-3-3β 1.5625e-5 M)	FP signal ([3]; 14-3-3β 3.125e-5 M)	FP signal ([3]; 14-3-3β 6.25e-5 M)	FP signal ([3]; 14-3-3β 0.000125 M)	FP signal ([3]; 14-3-3β 0.00025 M)	SMILES	Polarization, Everage no 14-3-3 ([1]; average of no 14-3-3 wells)	Polarization, no 14-3-3 ([1]; no 14-3-3, peptide 100 nM, replicates, listed as FC)	short-circuit current after stimulation by forskolin and genistein ([2]; 20 μM CY07424, 1 μM VX-809, biological replicates)
–	–	–	–	–	–	–	–	–	–	–	–	–	–	–	–	C=CC(C)(C)OC[C@H]1O[C@H](O[C@@H]2C3=C([C@H](C)COC(C)=O)C[C@H](O)[C@]3(C)/C=C3/[C@@H](COC)CC[C@H]3[C@@H](C)[C@H]2O)[C@H](O)[C@@H](OC(C)=O)[C@@H]1O [FC-A, fusicoccin A, reference compound]	22.00	23 and 21 and 22	–
higher conductance than the DMSO control	0.3333	4.333 and 3.333	7.333 and 6.333	14.3333 and 19.3333 and 15.3333	27.3333 and 29.3333 and 28.3333	45.3333 and 46.3333 and 43.3333	62.3333 and 55.3333	71.3333 and 70.3333	88.3333 and 86.3333 and 85.3333	104.333 and 105.333 and 107.333	129.333 and 126.333 and 125.333	145.333 and 149.333 and 146.333	167.333 and 166.333	181.333 and 182.333 and 185.333	195.333 and 193.333 and 196.333	N=C(N)NCCCC1NCc2ccccc2Sc2ccccc2CNC(=O)C(Cc2ccc(O)cc2)NC(=O)C(CCCN)NC1=O (stereo not shown) [CY007424]	–	–	1.424 and 1.182 and 1.788 (2×) and 1.697 and 2.091
